Laboratory results published in ChEMBL document CHEMBL4002560, “Synthesis and biological evaluation of novel isoxazolines linked via piperazine to 2- benzoisothiazoles as potent apoptotic agents” (Eur J Med Chem, 2017).
Activity calls are given as the source filed them. The calls are words filed in the database; no cut-off is given here.

What was measured:
[1] = test system: MDA-MB-231; test: Cytotoxicity against human MDA-MB-231 cells assessed as decrease in cell viability at 2 to 200 uM after 16 hrs by MTT assay; assay type: functional, cell-based
[2] = Cytotoxicity against mouse EAT cells assessed as cell death at 50 uM after 16 hrs by trypan blue dye exclusion assay relative to control; assay type: functional
[3] = test system: EAT; test: Cytotoxicity against mouse EAT cells assessed as decrease in cell viability at 50 uM by trypan blue dye exclusion assay; assay type: functional, cell-based; conditions: TDE = time-dependent effect
[4] = Induction of apoptosis in mouse EAT cells assessed as early apoptotic cells with membrane blebbing and condensed nuclei at 50 uM after 16 hrs by acridine orange/ethidium bromide staining-based fluorescence microscopic method relative to control; assay type: functional
[5] = test system: MDA-MB-231; test: Cytotoxicity against human MDA-MB-231 cells assessed as decrease in cell viability after 16 hrs by MTT assay; assay type: functional, cell-based; conditions: MDA-MB-231, 16 h

| SMILES | Activity [1] | Activity [2] [%] | Activity [3] | Activity [4] [%] | IC50 [5] [µM] |
| --- | --- | --- | --- | --- | --- |
| c1ccc(C2=NOC(CN3CCN(c4nsc5ccccc45)CC3)C2)cc1 (stereo unspecified) | inactive | 50 | Tde | – | – |
| c1ccc(COc2ccc(C3=NOC(CN4CCN(c5nsc6ccccc56)CC4)C3)cc2)cc1 (stereo unspecified) | Active | 45.6 | Tde | 59 | – |
| COc1cc(C2=NOC(CN3CCN(c4nsc5ccccc45)CC3)C2)cc(OC)c1OC (stereo unspecified) | inactive | – | Tde | – | – |
| COc1cc(C2=NOC(CN3CCN(c4nsc5ccccc45)CC3)C2)ccc1OCc1ccccc1 (stereo unspecified) | – | 53 | Tde | 67.3 | 30 |
| COc1ccc(C2=NOC(CN3CCN(c4nsc5ccccc45)CC3)C2)cc1 (stereo unspecified) | Active | – | Tde | – | – |
| Clc1ccc(C2=NOC(CN3CCN(c4nsc5ccccc45)CC3)C2)cc1 (stereo unspecified) | – | – | Tde | 61.3 | 75 |
| COc1ccc(C2=NOC(CN3CCN(c4nsc5ccccc45)CC3)C2)cc1OC (stereo unspecified) | Active | – | Tde | – | – |
| Fc1ccc(C2=NOC(CN3CCN(c4nsc5ccccc45)CC3)C2)cc1 (stereo unspecified) | inactive | – | Tde | – | – |
| COc1ccc(C2=NOC(CN3CCN(c4nsc5ccccc45)CC3)C2)cc1OCc1ccccc1 (stereo unspecified) | – | 44.6 | Tde | 50 | 95 |
